Measurements reported in patent publication US20130296412A1, “Artemisinin-Like Derivatives with Cytotoxic and Anti-Angiogenic Properties” (DAFRA PHARMA N.V., priority 2010, published 2013).
Where two headings read alike, the source gives them in different places.

Key:
HUVEC cells = experiment: VEGF-induced HUVEC proliferation/viability assay (WST1); format: cell-based, human; conditions: for Inhibition of proliferation and survival of HUVECs: 30 ng/ml VEGF165, 0.5-100 μM, 96 hrs
Experimental: Single donor HUVEC cells were purchased from Lonza (Breda, Netherlands). Cells were seeded at 5,000 cells per well in 96-well microtiterplates in EGM-2EV medium (Invitrogen). Upon adherence the cells were gently washed twice with PBS and starved overnight in EGM-2EV medium with reduced FBS content (0.1%; starvation medium).
After 96 hrs, cell growth was quantified using the WST1 Rapid cell proliferation kit (Calbiochem), and was expressed in percentage of the control value (VEGF alone). Experiments were carried out in triplets.
To further evaluate the anti-angiogenic potential of the present novel compounds, proliferation and survival of human umbilical vein endothelial cells (HUVECs) treated with VEGF and two compounds that were very active in the zebrafish model were assayed.

P-glycoprotein (P-gp) [1] = target: T1, P-glycoprotein (P-gp) (Homo sapiens, UniProt P08183)
T1 sequence (P08183 whole entry): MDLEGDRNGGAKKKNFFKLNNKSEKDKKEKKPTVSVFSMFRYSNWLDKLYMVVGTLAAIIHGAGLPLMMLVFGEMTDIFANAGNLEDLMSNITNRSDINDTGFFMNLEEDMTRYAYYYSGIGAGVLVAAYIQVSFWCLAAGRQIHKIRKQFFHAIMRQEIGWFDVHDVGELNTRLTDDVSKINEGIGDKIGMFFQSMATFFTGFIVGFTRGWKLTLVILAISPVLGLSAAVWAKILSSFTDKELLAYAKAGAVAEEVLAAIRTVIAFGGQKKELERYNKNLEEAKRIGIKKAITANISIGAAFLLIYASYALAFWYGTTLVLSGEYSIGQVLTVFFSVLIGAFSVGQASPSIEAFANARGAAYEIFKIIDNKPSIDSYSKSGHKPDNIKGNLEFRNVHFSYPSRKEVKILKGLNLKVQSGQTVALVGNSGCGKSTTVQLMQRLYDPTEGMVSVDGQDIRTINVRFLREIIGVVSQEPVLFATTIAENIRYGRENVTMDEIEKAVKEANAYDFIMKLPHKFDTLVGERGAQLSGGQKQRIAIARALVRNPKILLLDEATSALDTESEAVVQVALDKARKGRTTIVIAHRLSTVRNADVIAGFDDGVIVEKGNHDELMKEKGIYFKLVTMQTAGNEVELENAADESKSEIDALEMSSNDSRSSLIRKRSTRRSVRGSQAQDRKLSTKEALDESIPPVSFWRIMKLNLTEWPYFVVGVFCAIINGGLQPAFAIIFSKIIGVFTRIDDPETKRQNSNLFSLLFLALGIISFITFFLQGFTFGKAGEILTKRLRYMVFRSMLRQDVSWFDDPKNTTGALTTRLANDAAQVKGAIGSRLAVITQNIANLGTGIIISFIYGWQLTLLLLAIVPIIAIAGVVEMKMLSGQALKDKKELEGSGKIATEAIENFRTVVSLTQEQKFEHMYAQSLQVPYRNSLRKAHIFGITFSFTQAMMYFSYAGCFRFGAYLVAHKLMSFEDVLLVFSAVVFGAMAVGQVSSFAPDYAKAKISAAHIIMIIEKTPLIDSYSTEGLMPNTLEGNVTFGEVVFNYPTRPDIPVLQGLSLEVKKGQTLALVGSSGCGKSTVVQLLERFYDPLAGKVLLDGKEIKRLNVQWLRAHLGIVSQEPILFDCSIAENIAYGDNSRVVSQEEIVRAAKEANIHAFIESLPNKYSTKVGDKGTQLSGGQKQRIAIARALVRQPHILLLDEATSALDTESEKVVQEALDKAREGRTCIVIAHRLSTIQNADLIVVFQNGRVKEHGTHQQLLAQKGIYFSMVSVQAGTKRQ
Experimental: (§7) The intracellular accumulation of calcein inside the cells is measured by using FACS analysis. The points indicate mean values of fluorescent effect, vertical lines show standard error calculated on the base of two independent experiment replicates. The effect corresponds to a control of cells which were treated only with calcein.
(§8) Test compounds were dissolved in DMSO as stock solutions and further dilutions were made with DMEM/HAM's F12 1:1 (Biochrom). […] A range of concentrations of test compound in a volume of 300-600 μL cell suspension were added, followed by a 15 min incubation at 37° C. Calcein-AM (300 μL) (MoBiTec, Göttingen, Germany) in DMEM/HAM's F12 1:1 was added to a final concentration of 1 μM and incubated for 30 min at 37° C.
(§9) For the calcein-AM assay using flow cytometry, the cell density of suspensions in DMEM/Ham's F12 1:1 was 2.5×10^7 cells/ml.
(§10) Gating on forward and side scatter in concert with propidium iodide staining allowed distinguishing live endothelial cells.
(§11) Twenty thousand cells were sorted in each run, and data were processed and analyzed with CellQuest (Franklin Lakes, N.J., USA). All fluorescence signals were corrected for background fluorescence. Calcein-AM auto-hydrolysis was measured in control samples (n=6) without cells.

zebrafish embryos = experiment: Tg(fli1:EGFP) zebrafish embryo in vivo angiogenesis assay; conditions: for Anti-angiogenic effect (in words): zebrafish embryos, concentration range; for Concentration at which intersomitic vessel (ISV) formation was suppressed: as low as, toxicity evident above
Experimental: Tg(fli1:EGFP) zebrafish, which express enhanced green fluorescent protein (GFP) in their endothelial cells, were used as an in vivo model for angiogenesis. At 20 hours post-fertilization (hpf), zebrafish embryos (10 per well/condition) were bathed in fish media, containing a concentration range of each of the compounds or control. Compounds had been dissolved as stock solutions in DMSO, stored at room temperature, and serially diluted in fish media prior to use. The anti-angiogenic tyrosinase kinase inhibitor SU5416 (Pfizer), and a vehicle-alone control containing the maximum concentration of DMSO were used as controls in all experiments.
In the first sets of experiments, a broad range of concentrations were used to identify the maximum tolerable dose, based on toxicity to the embryos, visualized directly by light microscopy. Subsequent experiments were performed a minimum of two times. Live analyses of the embryos were performed under light and fluorescence microscopy at 28 hpf and 48 hpf to monitor viability, overall morphology, and pattern of swimming. Angiogenesis was evaluated visually by fluorescence microscopy.
The developmental growth and patterning of the dorsal aorta, posterior cardinal vein, intersomitic vessels (ISV), and vascular plexus (VP) were monitored, as was the heart rate, and blood flow.
Eight compounds (4, 7, 8, 9, 10, 11, 12 and 15) were compared to artesunate for their anti-angiogenic potential using an in vivo zebrafish embryo model system (Table III blow). DMSO at concentrations of 0.5, 1, and 2% was used as vehicle control. No effects were observed on overall morphology, heart rate, blood flow, or angiogenesis in control embryos. The anti-angiogenic agent SU5416 was used as a positive control.

CCRF-CEM leukemia cells = experiment: XTT cytotoxicity assay, drug-sensitive cells; format: cell-based, human
Experimental: (§1) Multidrug-resistant, P-glycoprotein-overexpressing CEM/ADR5000 cells and their parental, drug-sensitive counterpart, CCRF-CEM cells were used. The cell lines were provided by Dr. Daniel Steinbach (University of Ulm, Ulm, Germany).
(§2) Doxorubicin resistance of CEM/ADR5000 was maintained as described. […] The cell lines were maintained in RPMI medium (Life Technologies) supplemented with 10% FCS in a humidified 7% CO2 atmosphere at 37° C. Cells were passaged twice weekly. All experiments were done with cells in the logarithmic growth
(§3) Cytotoxicity was assessed using the 2,3-bis[2-methoxy-4-nitro-5-sulfophenyl]-2H-tetrazolium-5-carboxanilide inner salt (XTT) assay kit (Roche, Indianapolis, Ind.), which measures the metabolic activity of viable cells. Toxicity of compounds was determined with the Cell Proliferation Kit II (Roche Diagnostics, Mannheim, Germany), according to the manufacturer's instructions.
(§4) Fresh stock solutions of each compound were prepared in DMSO at a concentration of 100 mM, and a dilution series was prepared in DMEM. Cells were suspended at a final concentration of 1×10^5 cells/ml, and 100 ml were aliquoted per well into a 96-well culture plate (Costar, Corning, USA). Marginal wells were filled with 100 μL of media to minimize evaporation. A row of wells with cells was left untreated and another row of wells with cells was treated with 1 μL DMSO, the latter serving as a solvent control. All studies were performed in duplicate, in a range of concentrations, and in two independent experiments with different batches of cells.
(§5) The ligand binding module of Sigma plot software (version 10.0) was used for analysis.
(§6) All compounds were tested both towards drug-sensitive CCRF-CEM leukemia cells and their multidrug-resistant subline, CEM/ADR5000.

P-glycoprotein (P-gp) [2] = target: T1, P-glycoprotein (P-gp); experiment: Calcein-AM assay with flow cytometry in CEM/ADR5000 cells; conditions: for EC max (intracellular calcein fluorescence compared to untreated controls) / EC50: CEM/ADR5000 cells, flow cytometry; for EC50: read-out: EC50 calcein-AM assay
Experimental: as §7, §8, §9, §10, §11

[3] = test system: CEM/ADR5000 leukemia cells (P-glycoprotein-overexpressing); experiment: XTT cytotoxicity assay, multidrug-resistant cells; format: cell-based, human; conditions: for Degree of resistance: CEM/ADR5000 versus CCRF-CEM
Experimental: as §1, §2, §3
as §4, with “Cells were suspended at a final concentration of 1×10^5 cells/ml, and 100 ml were aliquoted per well into a 96-well culture plate (Costar, Corning, USA).” left out
as §5, §6

[4] = test system: P-gp expressed in porcine capillaries; experiment: Transport of NBD-CSA into porcine brain capillary lumens (confocal microscopy); format: cell-based
Source text: Luminal P-gp was inhibited by a well-known selective P-gylcoprotein inhibitor, PSC-833.

[5] = Homo sapiens, ADR5000, read-out: IC50 CEM/ADR5000
[6] = multidrug-resistant CEM/ADR5000 cells, XTT, read-out: IC50 CEM/ADR5000

Compound: C[C@H]1[C@H](OC(=O)CCC(=O)O)O[C@@H]2O[C@@]3(C)CC[C@H]4[C@H](C)CC[C@@H]1[C@@]24OO3 [Artesunate, artesunate, reference compound]
- Behaviour in cell culture medium (HUVEC cells; starvation medium EGM-2EV): precipitation from the cell culture medium
- P-gp inhibition judged by calcein fluorescence (P-glycoprotein (P-gp) [1]): do not act as P-gp inhibitors
- Dead = number of dead embryos up to 48 hpf (zebrafish embryos; 25 μg/ml, N = 20 embryos): 1
- Vasc. Defects = number of surviving embryos with vascular defects (zebrafish embryos; 25 μg/ml, N = 20 embryos): 0
- Dead = number of dead embryos up to 48 hpf (zebrafish embryos; 50 μg/ml, N = 20 embryos): 1
- Vasc. Defects = number of surviving embryos with vascular defects (zebrafish embryos; 50 μg/ml, N = 20 embryos): 2
- Dead = number of dead embryos up to 48 hpf (zebrafish embryos; 100 μg/ml, N = 20 embryos): 1
- Vasc. Defects = number of surviving embryos with vascular defects (zebrafish embryos; 100 μg/ml, N = 20 embryos): 6
- Dead = number of dead embryos up to 48 hpf (zebrafish embryos; 200 μg/ml, N = 10 embryos): 1
- Vasc. Defects = number of surviving embryos with vascular defects (zebrafish embryos; 200 μg/ml, N = 10 embryos): 9
- Anti-angiogenic effect (in words) (zebrafish embryos): dose-dependent anti-angiogenic effects

Compound: C[C@@H]1CC[C@H]2[C@@H](C)C(=O)O[C@@H]3O[C@@]4(C)CC[C@@H]1[C@]32OO4 [Compound 1, artemisinin]
- IC50 (CCRF-CEM leukemia cells; Homo sapiens): 148 ± 16.6 µM
- P-gp inhibition judged by calcein fluorescence (P-glycoprotein (P-gp) [2]; CCRF-CEM and CEM/ADR5000 cells, FIG. 5): do not act as P-gp inhibitors
- EC max (intracellular calcein fluorescence compared to untreated controls) (P-glycoprotein (P-gp) [2]): 114.1 ± 2.85^ %
- IC50 [3, 5]: 94.9 ± 30.5 µM

Compound: C[C@@H]1CC[C@H]2[C@@H](C)CO[C@@H]3O[C@@]4(C)CC[C@@H]1[C@]32OO4 [Compound 3, Deoxoartemisinin]
- IC50 (CCRF-CEM leukemia cells; Homo sapiens): 241 ± 50.7 µM
- Degree of resistance [3]: 0.49
- IC50 [3, 5]: 117 ± 8.2 µM

Compound: CC1=CO[C@@H]2O[C@@]3(C)CC[C@H]4[C@H](C)CC[C@@H]1[C@@]24OO3 [Compound 4, Anhydrodihydroartemisinin]
- IC50 (CCRF-CEM leukemia cells; Homo sapiens): 83.4 ± 7.51 µM
- Dead = number of dead embryos up to 48 hpf (zebrafish embryos; 50 μg/ml, N = 10 embryos): 2
- Vasc. Defects = number of surviving embryos with vascular defects (zebrafish embryos; 50 μg/ml, N = 10 embryos): 0
- Dead = number of dead embryos up to 48 hpf (zebrafish embryos; 75 μg/ml, N = 10 embryos): 5
- Other defects observed (zebrafish embryos; 75 μg/ml, N = 10 embryos): B, E
- Vasc. Defects = number of surviving embryos with vascular defects (zebrafish embryos; 75 μg/ml, N = 10 embryos): 0
- IC50 [3, 5]: 33.6 ± 0.68 µM

Compound: CC(=O)OC1O[C@@H]2O[C@@]3(C)CC[C@H]4[C@H](C)CCC([C@H]1C)[C@@]24OO3 (stereo partly shown) [Compound 7, 10-Dihydroartemisinyl acetate]
- Inhibition of proliferation and survival of HUVECs (HUVEC cells): inhibited the proliferation and survival of HUVECs significantly stronger than artemisinin
- Anti-angiogenic effect (in words) (zebrafish embryos): dose-dependent anti-angiogenic effects
- Degree of resistance [3]: 12.83

Compound: C[C@H]1C(OC(=O)C(Cl)Cl)O[C@@H]2O[C@@]3(C)CC[C@H]4[C@H](C)CCC1[C@@]24OO3 (stereo partly shown) [Compound 8, 10-Dihydroartemisinyl 2′,2′-Dichloroacetate]
- Inhibition of luminal P-gp (NBD-CSA in capillary lumen) [4]: almost empty lumen
- Anti-angiogenic effect (in words) (zebrafish embryos): dose-dependent anti-angiogenic effects

Compound: CCCC(=O)OC1O[C@@H]2O[C@@]3(C)CC[C@H]4[C@H](C)CCC([C@H]1C)[C@@]24OO3 (stereo partly shown) [Compound 9, 10-Dihydroartemisinyl Butyrate]
- Dead = number of dead embryos up to 48 hpf (zebrafish embryos; 25 μg/ml, N = 30 embryos): 17
- Concentration at which intersomitic vessel (ISV) formation was suppressed (zebrafish embryos): 1 µg/mL
- Anti-angiogenic effect (in words) (zebrafish embryos): dose-dependent anti-angiogenic effects
- Degree of resistance [3]: 0.51

Compound: CC(C)C(=O)OC1O[C@@H]2O[C@@]3(C)CC[C@H]4[C@H](C)CCC([C@H]1C)[C@@]24OO3 (stereo partly shown) [Compound 10]
- Inhibition of proliferation and survival of HUVECs (HUVEC cells): inhibited the proliferation and survival of HUVECs significantly stronger than artemisinin
- Anti-angiogenic effect (in words) (zebrafish embryos): dose-dependent anti-angiogenic effects
- Degree of resistance [3]: 22.46

Compound: CCCC(CCC)C(=O)OC1O[C@@H]2O[C@@]3(C)CC[C@H]4[C@H](C)CCC([C@H]1C)[C@@]24OO3 (stereo partly shown) [Compound 11, 10-Dihydroartemisinyl 2′-Propylpentanoate]
- Dead = number of dead embryos up to 48 hpf (zebrafish embryos; 10 μg/ml, N = 30 embryos): 22
- Concentration at which intersomitic vessel (ISV) formation was suppressed (zebrafish embryos): 1 µg/mL
- Anti-angiogenic effect (in words) (zebrafish embryos): dose-dependent anti-angiogenic effects
- Degree of resistance [3]: 1.23

Compound: C[C@H]1C(OC(=O)C(C)(C)C)O[C@@H]2O[C@@]3(C)CC[C@H]4[C@H](C)CCC1[C@@]24OO3 (stereo partly shown) [Compound 12, 10-Dihydroartemisinyl 2′,2′-Dimethylpropianate]
- Dead = number of dead embryos up to 48 hpf (zebrafish embryos; 1.0 μg/ml, N = 10 embryos): 0
- Anti-angiogenic effect (in words) (zebrafish embryos): a specific anti-angiogenic effect was not observed
- Toxicity to embryos (in words) (zebrafish embryos; zebrafish, in vivo): the most toxic at comparable doses
- Degree of resistance [3]: 2.65

Compound: C[C@H]1C(OC(=O)c2ccccc2)O[C@@H]2O[C@@]3(C)CC[C@H]4[C@H](C)CCC1[C@@]24OO3 (stereo partly shown) [Compound 13, 10-dihydroartemisinyl benzoate]
- Degree of resistance [3]: 7.79

Compound: C[C@H]1C(OC(=O)N(C)C)O[C@@H]2O[C@@]3(C)CC[C@H]4[C@H](C)CCC1[C@@]24OO3 (stereo partly shown) [Compound 14]
- Degree of resistance [3]: 19.76

Compound: CCC(C)OC1OC2OC3(C)CCC4C(C)CCC(C1C)C24OO3 (stereo not shown) [Compound 15, 10-(2′-Butyloxy)Dihydroartemisinin]
- Inhibition of luminal P-gp (NBD-CSA in capillary lumen) [4]: almost empty lumen
- IC50 (CCRF-CEM leukemia cells): 16.7 ± 7.34 µM
- Dead = number of dead embryos up to 48 hpf (zebrafish embryos; 1.0 μg/ml, N = 10 embryos): 0
- Vasc. Defects = number of surviving embryos with vascular defects (zebrafish embryos; 1.0 μg/ml, N = 10 embryos): 0
- Dead = number of dead embryos up to 48 hpf (zebrafish embryos; 10 μg/ml, N = 10 embryos): 1
- Vasc. Defects = number of surviving embryos with vascular defects (zebrafish embryos; 10 μg/ml, N = 10 embryos): 0
- Dead = number of dead embryos up to 48 hpf (zebrafish embryos; 25 μg/ml, N = 10 embryos): 0
- Vasc. Defects = number of surviving embryos with vascular defects (zebrafish embryos; 25 μg/ml, N = 10 embryos): 0
- EC max (intracellular calcein fluorescence compared to untreated controls) (P-glycoprotein (P-gp) [2]): 1180 ± 178.7%
- EC50 (P-glycoprotein (P-gp) [2]): 61.8 ± 9.62 µM
- Degree of resistance [3]: 0.47
- IC50 [3, 6]: 7.96 ± 3.76 µM

Compound: CC1CCC2C(C)C(SCCN)OC3OC4(C)CCC1C32OO4 (stereo not shown) [Compound 16, 10-Dihydroartemisinyl Thioethylamine]
- IC50 (CCRF-CEM leukemia cells): 0.86 ± 0.19 µM
- EC max (intracellular calcein fluorescence compared to untreated controls) (P-glycoprotein (P-gp) [2]): 1011 ± 106.3%
- EC50 (P-glycoprotein (P-gp) [2]): 27.2 ± 4.69 µM
- Degree of resistance [3]: 3.88
- IC50 [3, 6]: 3.34 ± 0.64 µM

Compound: C/C=C/C[C@@H](C)C(=O)[C@H]1C(=O)N[C@@H](C(C)C)C(=O)N(C)CC(=O)N(C)[C@@H](CC(C)C)C(=O)N[C@@H](C(C)C)C(=O)N(C)[C@@H](CC(C)C)C(=O)N[C@@H](C)C(=O)N[C@H](C)C(=O)N(C)[C@@H](CC(C)C)C(=O)N(C)[C@@H](CC(C)C)C(=O)N(C)[C@@H](C(C)C)C(=O)N1C [PSC-833, reference compound]
- Inhibition of luminal P-gp (NBD-CSA in capillary lumen) [4]: inhibited

Compound: Cc1cc(C)c(/C=C2\C(=O)Nc3ccccc32)[nH]1 [SU5416, reference compound]
- Formation of intersomitic vessels (ISVs) at 28 hpf (zebrafish embryos; 10 μg/ml, 28 hpf): completely blocked
- ISV sprouting at 48 hpf compared to control embryos (zebrafish embryos; 10 μg/ml, 48 hpf): sprouted only minimally
